Test results from patent publication US9115148B2, “Spirocyclic derivatives as histone deacetylase inhibitors” (DAC S.R.L., priority 2008, dated 2015).

How the values were obtained:
[1] = tested on: HDAC (nuclear fraction of Hela cells); test: Assay of enzyme inhibition of HDAC (BIOMOL Kit); format: biochemical; conditions: substrate 200 μM, 15 min at RT
How it was run: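 Enzyme source was HeLa nuclear fraction, incubated 15 min at RT with compound and an acetyl-lysine substrate at 200 μM. IC50 values were derived from concentration-response data.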

A549 cells = test: Cell growth, CellTiter-Glo Luminescent Cell Viability Assay, A549; format: cell-based; conditions: Homo sapiens, 72 h incubation, read-out: IC50 antiproliferative assay A549
How it was run: (§1)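 Exponentially growing cells exposed 72 h to a range of inhibitor concentrations. Viability measured as cellular ATP by CellTiter-Glo luminescence (2 min lysis, read after 10 min RT); IC50 calculated and binned into ranges (≤1.0, 1.0–3.0, ≥3.0 μM).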

K562 cells = test: Cell growth, CellTiter-Glo Luminescent Cell Viability Assay, K562; format: cell-based; conditions: Homo sapiens, 72 h incubation, read-out: IC50 antiproliferative assay K562
How it was run: as §1

HCT-116 cells = test: Cell growth, CellTiter-Glo Luminescent Cell Viability Assay, HCT-116; format: cell-based; conditions: Homo sapiens, HCT116 cells, 72 h incubation, read-out: IC50 antiproliferative assay HCT116
How it was run: as §1

| Structure (SMILES) | IC50 [1] [µM] | IC50 (A549 cells) [µM] | IC50 (K562 cells) [µM] | IC50 (HCT-116 cells) [µM] |
| --- | --- | --- | --- | --- |
| O=C(/C=C/c1ccc2c(c1)C(=O)NC1(CCN(CCc3ccccc3)CC1)O2)NO [Example 71, (E)-3-{1′-(2-Phenyl-ethyl)-3,4-dihydro-4-oxo-spiro[2H-(1,3)-benzoxazine-2,4′-piperidin]-6-yl}-N-hydroxy-acrylamide] | < 0.1 | 1 to 3 | ≤ 1 | ≤ 1 |
| O=C(/C=C/c1ccc2c(c1)C(=O)NC1(CCNCC1)O2)NO [Example 72, (E)-3-{3,4-Dihydro-4-oxo-spiro[2H-(1,3)-benzoxazine-2,4′-piperidin]-6-yl}-N-hydroxy-acrylamide] | < 0.1 | ≥ 3 | ≥ 3 | ≥ 3 |
| CN1CCC2(CC1)NC(=O)c1cc(/C=C/C(=O)NO)ccc1O2 [Example 73, (E)-3-{1′-Methyl-3,4-dihydro-4-oxo-spiro[2H-(1,3)-benzoxazine-2,4′-piperidin]-6-yl}-N-hydroxy-acrylamide] | < 0.1 | 1 to 3 | 1 to 3 | ≤ 1 |
| O=C(/C=C/c1ccc2c(c1)C(=O)NC1(CCN(Cc3ccc(F)cc3)CC1)O2)NO [Example 74, (E)-3-{1′-(4-Fluoro-benzyl)-3,4-dihydro-4-oxo-spiro[2H-(1,3)-benzoxazine-2,4′-piperidin]-6-yl}-N-hydroxy-acrylamide] | 0.1 to 1 | 1 to 3 | ≤ 1 | ≤ 1 |
| CN1C(=O)c2cc(/C=C/C(=O)NO)ccc2OC12CCN(Cc1ccc(F)cc1)CC2 [Example 75, (E)-3-{1′-(4-Fluoro-benzyl)-3,4-dihydro-3-methyl-4-oxo-spiro[2H-(1,3)-benzoxazine-2,4′-piperidin]-6-yl}-N-hydroxy-acrylamide] | 0.1 to 1 | 1 to 3 | ≤ 1 | ≤ 1 |
| CN1C(=O)c2cc(/C=C/C(=O)NO)ccc2OC12CCN(Cc1ccccc1)CC2 [Example 76, (E)-3-{1′-Benzyl-3,4-dihydro-3-methyl-4-oxo-spiro[2H-(1,3)-benzoxazine-2,4′-piperidin]-6-yl}-N-hydroxy-acrylamide] | 0.1 to 1 | 1 to 3 | 1 to 3 | ≤ 1 |
| CN1C(=O)c2cc(/C=C/C(=O)NO)ccc2OC12CCN(CCc1ccccc1)CC2 [Example 77, (E)-3-{1′-(2-Phenyl-ethyl)-3,4-dihydro-3-methyl-4-oxo-spiro[2H-(1,3)-benzoxazine-2,4′-piperidin]-6-yl}-N-hydroxy-acrylamide] | 0.1 to 1 | 1 to 3 | ≤ 1 | 1 to 3 |
| CN1CCC2(CC1)Oc1ccc(/C=C/C(=O)NO)cc1C(=O)N2C [Example 78, (E)-3-{1′-Methyl-3,4-dihydro-3-methyl-4-oxo-spiro[2H-(1,3)-benzoxazine-2,4′-piperidin]-6-yl}-N-hydroxy-acrylamide] | 0.1 to 1 | ≥ 3 | 1 to 3 | 1 to 3 |
| CN1C(=O)c2cc(/C=C/C(=O)NO)ccc2OC12CCNCC2 [Example 79, (E)-3-{3,4-Dihydro-3-methyl-4-oxo-spiro[2H-(1,3)-benzoxazine-2,4′-piperidin]-6-yl}-N-hydroxy-acrylamide] | 0.1 to 1 | ≥ 3 | ≥ 3 | ≥ 3 |
| O=C(/C=C/c1ccc2c(c1)C(=O)N(Cc1ccccc1)C1(CCN(Cc3ccccc3)CC1)O2)NO [Example 80, (E)-3-{1′-Benzyl-3,4-dihydro-3-benzyl-4-oxo-spiro[2H-(1,3)-benzoxazine-2,4′-piperidin]-6-yl}-N-hydroxy-acrylamide] | 0.1 to 1 | 1 to 3 | 1 to 3 | 1 to 3 |
| CN1CCC2(CC1)Oc1ccc(/C=C/C(=O)NO)cc1C(=O)N2Cc1ccccc1 [Example 81, (E)-3-{1′-Methyl-3,4-dihydro-3-benzyl-4-oxo-spiro[2H-(1,3)-benzoxazine-2,4′-piperidin]-6-yl}-N-hydroxy-acrylamide] | 0.1 to 1 | ≤ 1 | ≤ 1 | ≤ 1 |
| O=C(/C=C/c1ccc2c(c1)C(=O)N(Cc1ccccc1)C1(CCN(Cc3ccc(F)cc3)CC1)O2)NO [Example 83, (E)-3-{1′-(4-Fluoro-benzyl)-3,4-dihydro-3-benzyl-4-oxo-spiro[2H-(1,3)-benzoxazine-2,4′-piperidin]-6-yl}-N-hydroxy-acrylamide] | 0.1 to 1 | ≥ 3 | 1 to 3 | 1 to 3 |
| O=C(/C=C/c1ccc2c(c1)C(=O)N(Cc1ccccc1)C1(CCN(CCc3ccccc3)CC1)O2)NO [Example 84, (E)-3-{1′-(2-Phenyl-ethyl)-3,4-dihydro-3-benzyl-4-oxo-spiro[2H-(1,3)-benzoxazine-2,4′-piperidin]-6-yl}-N-hydroxy-acrylamide] | 0.1 to 1 | 1 to 3 | 1 to 3 | 1 to 3 |
